The values below come from article PMC7408095 (Pharmaceutics, 2020).

Data set [1] in a line: Plasma pharmacokinetics of atorvastatin, 2-OH AT and 4-OH AT in rats (UPLC-MS/MS). To be noted: for AUC0-t / AUC0-∞ / Cmax / metabolite/atorvastatin Cmax ratio: rat plasma.
Experimental: (§1) The concentration of each of the working solutions was 10 μg/mL. The sample preparation involved liquid-liquid extraction. […] The analytes were separated in a Zorbax Plus C18 column (100 × 2.1 mm; 3.5 μm) (Agilent Technologies, Santa Clara, California, USA) at a column temperature of 40 °C. The mobile phase was a mixture of de-ionized water (A) and acetonitrile (B), both containing 0.1% (v/v) formic acid. […] The mobile phase flow was set to 0.3 mL/min. The eluent from the HPLC column was introduced directly to the MS interface, using electrospray ionization in the positive ion mode. The MS parameters were as follows: interface temperature, 350 °C; DL temperature, 250 °C; heat block temperature, 400 °C; nebulizing gas flow, 2 L/min; and drying gas flow, 15 L/min. The electrospray needle voltage was 3.5 kV. The specific transitions for the analytes were monitored using the multiple reaction monitoring (MRM) mode.
For data set [2] the following is noted: rat, in vivo, po, 20 mg/kg.
Experimental: as §1
Data set [3] is described as follows: Adverse effects of the doses used in healthy rats. It counts as in vivo.
The conditions of data set [4]: rat, in vivo, 20 mg/kg; cited from earlier work.
For data set [5] the following is noted: rat, in vivo, po, 100 mg/kg.
Text: (§2) The Phoenix® WinNonlin version 8.0 software (Certara, Princeton, New Jersey, USA) was used for the calculation of the following pharmacokinetic parameters: • The elimination rate constant (ke); • The absorption rate constant (ka); • The elimination half-life (t1/2); • The maximum plasma concentration (Cmax); • The time to reach the Cmax (tmax); • The total area under the concentration–time curve (AUC0-t and AUC0--∞); • The apparent plasma drug clearance (Cl/F); • The apparent volume of distribution (Vd/F).
The conditions of data set [6]: cited from earlier work.
The conditions of data set [7]: cited from earlier work. This is another data set of the same source.
A short description of data set [8]: Plasma pharmacokinetics of sorafenib and sorafenib N-oxide in rats (HPLC-UV).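 As to all read-outs here: pharmacokinetic parameters were computed with Phoenix WinNonlin 8.0 software from the plasma concentration–time curve.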 The note with it: for AUC0-t / AUC(0-inf) / Cmax / Vd/F / k el / half-life: male, Wistar, rat, plasma, po, 100 mg/kg; for AUC0-t / AUC(0-inf) / Cmax / Vd/F / k el / ka: rat plasma; for AUC(0-inf): AUC0-∞; for k el: kel; for half-life: t1/2, rat plasma.
Text: as §2
The nature of the next data set: in vivo. To be noted: male, Wistar, rat, plasma, po, 100 mg/kg.
Data set [9] can be described thus: Plasma pharmacokinetics of metformin in rats (HPLC-UV).
Text: as §2
Where [10] appears, read: single oral atorvastatin 20 mg/kg b.w. alone (IVAT group).
The mark [11] stands for this setting: single oral sorafenib 100 mg/kg + atorvastatin 20 mg/kg b.w. (ISOR+AT group).
Setting [12] is: rats, ISOR+AT group vs IVAT group.
[13] abbreviates: single oral sorafenib 100 mg/kg + metformin 100 mg/kg b.w. (IISOR+MET group).
The mark [14] stands for this setting: single oral sorafenib 100 mg/kg b.w. alone (IIISOR group).
The mark [15] stands for this setting: rats, IISOR+MET group vs IIISOR group.
Setting [16] is: rats, ISOR+AT group vs IIISOR group.
Setting [17] is: rat plasma, single oral sorafenib 100 mg/kg + metformin 100 mg/kg b.w. (IISOR+MET group).

Where two headings read alike, the source gives them in different places.

Text for in vivo: as §2

For `CC(C)c1c(C(=O)Nc2ccccc2O)c(-c2ccccc2)c(-c2ccc(F)cc2)n1CCC(O)CC(O)CC(=O)O` (stereo not drawn) [2-OH AT, 2-hydroxy atorvastatin], in data set [1] (setting [10]), the AUC0-t is 617.32 ± 277.54 (45.0) ng × h/mL, the “AUC0-∞” value is recorded as 695.68 ± 297.16 (42.7) ng × h/mL, the Cmax is 175.20 ± 116.62 (66.6) ng/mL and the “metabolite/atorvastatin Cmax ratio” value is on record as 2.35 ± 1.12 (47.6) ng/mL. Also, in [1] (setting [11]), the AUC0-t is given as 958.91 ± 342.91 (35.8) ng × h/mL, the “AUC0-∞” value is 993.97 ± 343.87 (34.6) ng × h/mL, the Cmax is 185.82 ± 90.16 (48.5) ng/mL and the “metabolite/atorvastatin Cmax ratio” value is recorded as 2.43 ± 1.06 (43.6) ng/mL. In [1] (setting [12]), the “change in the 2-OH AT/atorvastatin ratio for AUC0-t” value is given as −19.4%, the “change in the 2-OH AT/atorvastatin ratio for AUC0-∞” value was −26.0% and the “increase in AUC caused by sorafenib (abstract)” value is 55.3%.
As for `CC(C)c1c(C(=O)Nc2ccc(O)cc2)c(-c2ccccc2)c(-c2ccc(F)cc2)n1CC[C@@H](O)C[C@@H](O)CC(=O)O` [4-OH AT, 4-hydroxy atorvastatin], in [2], the AUC0-t is given as 14.63 ± 5.57 (38.1) ng × h/mL and the “AUC0-∞” value is 19.22 ± 7.06 (36.7) ng × h/mL.
`CC(C)c1c(C(=O)Nc2ccccc2)c(-c2ccccc2)c(-c2ccc(F)cc2)n1CC[C@@H](O)C[C@@H](O)CC(=O)O` [Atorvastatin, atorvastatin]: the adverse effects entry in [3] (20 mg/kg single oral dose) is recorded as “did not cause any adverse effects”. The safety result in data set [4] is “safe”.
With `CNC(=O)c1cc(Oc2ccc(NC(=O)Nc3ccc(Cl)c(C(F)(F)F)c3)cc2)cc[n+]1[O-]` [Sorafenib N-oxide, sorafenib N-oxide], in data set [5], the AUC0-t is 4.10 ± 1.56 (38.1) µg × h/mL, the “AUC0-∞” value was 8.61 ± 2.19 (25.4) µg × h/mL, the k el is reported as 0.016 ± 0.010 (60.9) h^−1 and the tmax is given as 16.38 ± 8.21 (50.1) h.
A word on the AUC(0-inf): it is the area under the concentration-time curve extrapolated to infinity. In general, half-life refers to the time needed for the level to fall by half in the phase considered. Regarding `CNC(=O)c1cc(Oc2ccc(NC(=O)Nc3ccc(Cl)c(C(F)(F)F)c3)cc2)ccn1` [Sorafenib, sorafenib], the “protein-bound form in plasma” value in data set [6] is 99.5%. The “decrease in sorafenib absorption with a high-fat diet” value in [7] (clinically important interaction) is reported as 30%. Besides, the “share in the systemic circulation” value in data set [7] (sorafenib unchanged or as sorafenib N-oxide) is 70−85%. For the same compound, in data set [8] (setting [11]), the AUC0-t amounted to 105000 ± 18900 ng·h/mL, the AUC(0-inf) stood at 106000 ± 19300 ng·h/mL, the Cmax was found to be 3660 ± 1210 ng/mL and the Vd/F is 9.98 ± 2.48 L. Also, in [8] (setting [11]), the k el was 1.39e-05 s⁻¹, the half-life was 14.7 ± 3.17 h and the ka was 0.20 ± 0.11 (53.2) h^−1. Also, in data set [8] (setting [13]), the AUC0-t is 35200 ± 8360 ng·h/mL, the AUC(0-inf) came out at 36800 ± 8960 ng·h/mL, the Cmax is 1270 ± 380 ng/mL and the Vd/F worked out at 34.1 ± 18.7 L. Besides, in data set [8] (setting [13]), the k el was 1.39e-05 s⁻¹, the half-life is 16.3 ± 3.72 h and the ka is given as 0.35 ± 0.23 (66.8) h^−1. Also, in [8] (setting [14]), the AUC0-t stood at 62800 ± 16100 ng·h/mL, the Vd/F was 25.3 ± 11.6 L, the k el is 9.72e-06 s⁻¹ and the half-life is 21.9 ± 7.79 h. The ka in data set [8] (setting [14]) is 0.74 ± 0.31 (42.5) h^−1. Besides, in data set [8] (setting [15]), the “decrease in AUC0-t in the presence of metformin” value was determined as 44.0%, the “decrease in AUC0-∞ in the presence of metformin” value is reported as 45.1%, the “decrease in ka in the presence of metformin” value is listed as 0.5 fold and the “increase in clearance in the presence of metformin” value was determined as 76.3%. For the same compound, in data set [8] (setting [16]), the “decrease in ka with co-administered atorvastatin” value is reported as 73.0%, the “decrease in t1/2 with co-administered atorvastatin” value worked out at 0.3 fold, the “increase in AUC0-t with co-administered atorvastatin” value came out at 66.6% and the “increase in AUC0-∞ with co-administered atorvastatin” value turned out to be 58.7%. Moreover, in [8] (setting [16]), the “increase in AUC with co-administered atorvastatin (abstract)” value came out at 66.6%, the “increase in Cmax with co-administered atorvastatin” value worked out at 134.6%, the “increase in kel with co-administered atorvastatin” value came to 42.9% and the “increase in tmax with co-administered atorvastatin” value came out at 116.9%.
As a reminder, the MRT last is a mean duration of stay, worked out from the concentration-time curve. On to `CN(C)C(=N)N=C(N)N` [metformin], for which the adverse effects entry in [3] (100 mg/kg single oral dose) is listed as “did not cause any adverse effects”. Also, the plasma protein-bound fraction result in [6] is reported as “negligible”. In the data set “in vivo”, this compound showed an AUC0-t of 3830 ± 1230 ng·h/mL, an AUC(0-inf) of 7900 ± 1930 ng·h/mL, a Cmax of 500 ± 290 ng/mL and an MRT last of 9.81 ± 1.27 h. For the same compound, in “in vivo”, the Vd/F is 228 ± 91 L, the k el is 8.33e-06 s⁻¹ and the tmax is 1.09 ± 0.57 h. In addition, the Cl/F in data set [9] (rat plasma, single oral metformin 100 mg/kg b.w. alone (VMET group)) is 6.31 ± 1.48 (23.5) L/h. In addition, in data set [9] (setting [17]), the AUC0-t was 3.64 ± 1.15 (31.6) µg × h/mL, the “AUC0-∞” value is 10.88 ± 4.50 (41.4) µg × h/mL, the Cl/F is reported as 5.50 ± 3.08 (56.0) L/h and the Cmax is recorded as 0.46 ± 0.26 (56.5) µg/mL. Further, in data set [9] (setting [17]), the MRT0-t is listed as 8.65 ± 2.22 (25.7) h, the Vd/F was 297.89 ± 133.23 (44.7) L, the k el is 0.03 ± 0.04 (133.3) h^−1 and the tmax is listed as 1.88 ± 0.23 (12.2) h. Moreover, the “increase in tmax with co-administered sorafenib” value in data set [9] (rats, IISOR+MET group vs VMET group) turned out to be 71.39%.
